# Experimental data from patent US20260262643A1, “HERBICIDAL BENZOXAZINES” (FMC CORPORATION, priority 2022, published 2026).
# How the values were obtained:
# barnyardgrass [1] = test: Test C preemergence; format: in vivo, Echinochloa crusgalli; settings: 0 to 100 scale (0 no effect, 100 complete control); for Barnyardgrass plant response rating: preemergence
# How it was run: (§1)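 Test material, in non-phytotoxic solvent with surfactant, was sprayed on the soil directly after seeding (preemergence) or on young plants of 2–10 cm with one to two leaves (postemergence). Greenhouse, 10 days; 0–100 visual control scale.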
# blackgrass [2] = test: Test C preemergence; format: in vivo, Alopecurus myosuroides; settings: 0 to 100 scale (0 no effect, 100 complete control); for Blackgrass plant response rating: preemergence
# How it was run: as §1
# corn [3] = test: Test C preemergence; format: in vivo, Zea mays; settings: preemergence, 0 to 100 scale (0 no effect, 100 complete control)
# How it was run: as §1
# green foxtail [4] = test: Test C preemergence; format: in vivo, Setaria viridis; settings: preemergence, 0 to 100 scale (0 no effect, 100 complete control)
# How it was run: as §1
# kochia [5] = test: Test C preemergence; format: in vivo, Bassia scoparia; settings: preemergence, 0 to 100 scale (0 no effect, 100 complete control)
# How it was run: as §1
# oat, wild [6] = test: Test C preemergence; format: in vivo, Avena fatua; settings: preemergence, 0 to 100 scale (0 no effect, 100 complete control)
# How it was run: as §1
# pigweed, palmer [7] = test: Test C preemergence; format: in vivo, Amaranthus palmeri; settings: preemergence, 0 to 100 scale (0 no effect, 100 complete control)
# How it was run: as §1
# ragweed [8] = test: Test C preemergence; format: in vivo, Ambrosia artemisiifolia; settings: preemergence, 0 to 100 scale (0 no effect, 100 complete control)
# How it was run: as §1
# ryegrass, Italian [9] = test: Test C preemergence; format: in vivo, Lolium multiflorum; settings: preemergence, 0 to 100 scale (0 no effect, 100 complete control)
# How it was run: as §1
# soybean [10] = test: Test C preemergence; format: in vivo, Glycine max; settings: preemergence, 0 to 100 scale (0 no effect, 100 complete control)
# How it was run: as §1
# wheat [11] = test: Test C preemergence; format: in vivo, Triticum aestivum; settings: preemergence, 0 to 100 scale (0 no effect, 100 complete control)
# How it was run: as §1
# barnyardgrass [12] = test: Test C postemergence; format: in vivo, Echinochloa crusgalli; settings: 10 days
# How it was run: as §1
# blackgrass [13] = test: Test C postemergence; format: in vivo, Alopecurus myosuroides; settings: 10 days
# How it was run: as §1
# corn [14] = test: Test C postemergence; format: in vivo, Zea mays; settings: 10 days
# How it was run: as §1
# green foxtail [15] = test: Test C postemergence; format: in vivo, Setaria viridis; settings: 10 days
# How it was run: as §1
# kochia [16] = test: Test C postemergence; format: in vivo, Bassia scoparia; settings: postemergence, 10 days
# How it was run: as §1
# oat, wild [17] = test: Test C postemergence; format: in vivo, Avena fatua; settings: postemergence, 10 days
# How it was run: as §1
# pigweed, palmer [18] = test: Test C postemergence; format: in vivo, Amaranthus palmeri; settings: postemergence, 10 days
# How it was run: as §1
# ragweed [19] = test: Test C postemergence; format: in vivo, Ambrosia artemisiifolia; settings: postemergence, 10 days
# How it was run: as §1
# ryegrass, Italian [20] = test: Test C postemergence; format: in vivo, Lolium multiflorum; settings: postemergence, 10 days
# How it was run: as §1
# soybean [21] = test: Test C postemergence; format: in vivo, Glycine max; settings: postemergence, 10 days
# How it was run: as §1
# wheat [22] = test: Test C postemergence; format: in vivo, Triticum aestivum; settings: postemergence, 10 days
# How it was run: as §1
# galium = test: Test C postemergence; format: in vivo, Galium aparine; settings: 10 days
# How it was run: as §1
# horseweed = test: Test C postemergence; format: in vivo, Erigeron canadensis; settings: 10 days
# How it was run: as §1
# barnyardgrass [23] = test: Test D flooded paddy test; format: in vivo, Echinochloa crus-galli; settings: 250 g ai/ha, applied to paddy water, visual rating after 13 to 14 days, scale 0 to 100 (0 no effect, 100 complete control)
# How it was run: (§2)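 2-leaf plants; flood 3 cm above soil; compound dosed into paddy water; greenhouse 13–14 d; visual rating vs controls, 0–100 (100 = complete control); dash = not tested.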
# ducksalad = test: Test D flooded paddy test; format: in vivo, Heteranthera limosa; settings: 250 g ai/ha, applied to paddy water, visual rating after 13 to 14 days, scale 0 to 100 (0 no effect, 100 complete control)
# How it was run: as §2
# rice = test: Test D flooded paddy test; format: in vivo, Oryza sativa; settings: 250 g ai/ha, applied to paddy water, visual rating after 13 to 14 days, scale 0 to 100 (0 no effect, 100 complete control)
# How it was run: as §2
# sedge, umbrella = test: Test D flooded paddy test; format: in vivo, Cyperus difformis; settings: 250 g ai/ha, applied to paddy water, visual rating after 13 to 14 days, scale 0 to 100 (0 no effect, 100 complete control)
# How it was run: as §2
# [24] = Preemergence, 500 g ai/ha, visual rating after 10 days
# [25] = 125 g ai/ha, postemergence, 0 to 100 scale, 0 no effect, 100 complete control
# [26] = Postemergence, 500 g ai/ha, visual 0 to 100 scale (0 no effect, 100 complete control)
# [27] = 125 g ai/ha, 0 to 100 scale, 0 no effect, 100 complete control
# [28] = 500 g ai/ha, postemergence, 0 to 100 scale (0 no effect, 100 complete control)
# [29] = 500 g ai/ha, 0 to 100 scale (0 no effect, 100 complete control)
smiles,measurement,setting,value
CCc1ccc(-n2cnc(C(C)(C)O)n2)cc1C(=O)N1C[C@H](C)Oc2c(C)cccc21 [Compound 279],"Plant response rating, Barnyardgrass",barnyardgrass [1]; [24],100
same,Barnyardgrass plant response rating,"barnyardgrass [1]; Test C, 125 g ai/ha",90
same,"Plant response rating, Blackgrass",blackgrass [2]; [24],90
same,Blackgrass plant response rating,"blackgrass [2]; Test C, 125 g ai/ha",70
same,Corn plant response rating,corn [3]; 500 g ai/ha,80
same,Corn plant response rating,"corn [3]; Test C, 125 g ai/ha",50
same,"Foxtail, Green plant response rating",green foxtail [4]; 500 g ai/ha,100
same,"Foxtail, Green plant response rating","green foxtail [4]; Test C, 125 g ai/ha",100
same,Kochia plant response rating,kochia [5]; 500 g ai/ha,90
same,Kochia plant response rating,"kochia [5]; Test C, 125 g ai/ha",70
same,"Oat, Wild plant response rating","oat, wild [6]; 500 g ai/ha",90
same,"Oat, Wild plant response rating","oat, wild [6]; Test C, 125 g ai/ha",80
same,"Pigweed, Palmer plant response rating","pigweed, palmer [7]; 500 g ai/ha",100
same,"Pigweed, Palmer plant response rating","pigweed, palmer [7]; Test C, 125 g ai/ha",100
same,Ragweed plant response rating,ragweed [8]; 500 g ai/ha,90
same,Ragweed plant response rating,"ragweed [8]; Test C, 125 g ai/ha",70
same,"Ryegrass, Italian plant response rating","ryegrass, Italian [9]; 500 g ai/ha",90
same,"Ryegrass, Italian plant response rating","ryegrass, Italian [9]; Test C, 125 g ai/ha",90
same,Soybean plant response rating,soybean [10]; 500 g ai/ha,100
same,Soybean plant response rating,"soybean [10]; Test C, 125 g ai/ha",90
same,Wheat plant response rating,wheat [11]; 500 g ai/ha,90
same,Wheat plant response rating,"wheat [11]; Test C, 125 g ai/ha",60
same,"Plant response rating, Barnyardgrass",barnyardgrass [12]; [25],90
same,"Plant response rating, Barnyardgrass",barnyardgrass [12]; [26],100
same,"Plant response rating, Blackgrass",blackgrass [13]; [25],80
same,"Plant response rating, Blackgrass",blackgrass [13]; [26],90
same,"Plant response rating, Corn",corn [14]; [25],90
same,"Plant response rating, Corn",corn [14]; [26],90
same,"Plant response rating, Foxtail, Green",green foxtail [15]; [25],90
same,"Plant response rating, Foxtail, Green",green foxtail [15]; [26],90
same,"Plant response rating, Kochia",kochia [16]; [27],20
same,"Plant response rating, Oat, Wild","oat, wild [17]; [27]",80
same,"Plant response rating, Pigweed, Palmer","pigweed, palmer [18]; [27]",70
same,"Plant response rating, Ragweed",ragweed [19]; [27],50
same,"Plant response rating, Ryegrass, Italian","ryegrass, Italian [20]; [27]",90
same,"Plant response rating, Soybean",soybean [21]; [27],100
same,"Plant response rating, Wheat",wheat [22]; [27],80
same,"Plant response rating, Galium",galium; [25],100
same,"Plant response rating, Galium",galium; [26],100
same,"Plant response rating, Horseweed",horseweed; [25],0
same,"Plant response rating, Horseweed",horseweed; [26],20
same,"Plant response rating, Barnyardgrass (Flood)",barnyardgrass [23],60
same,"Plant response rating, Ducksalad (Flood)",ducksalad,100
same,"Plant response rating, Rice (Flood)",rice,35
same,"Plant response rating, Sedge, Umbrella (Flood)","sedge, umbrella",100
CCc1ncn(-c2ccc(C)c(C(=O)N3CC(C(F)(F)F)Oc4c(Cl)cccc43)c2)n1 (racemic) [Compound 290],Barnyardgrass plant response rating,barnyardgrass [1]; 500 g ai/ha,100
same,Barnyardgrass plant response rating,"barnyardgrass [1]; Test C, 125 g ai/ha",90
same,Blackgrass plant response rating,blackgrass [2]; 500 g ai/ha,70
same,Blackgrass plant response rating,"blackgrass [2]; Test C, 125 g ai/ha",70
same,Corn plant response rating,corn [3]; 500 g ai/ha,40
same,Corn plant response rating,"corn [3]; Test C, 125 g ai/ha",30
same,"Foxtail, Green plant response rating",green foxtail [4]; 500 g ai/ha,100
same,"Foxtail, Green plant response rating","green foxtail [4]; Test C, 125 g ai/ha",100
same,Kochia plant response rating,kochia [5]; 500 g ai/ha,90
same,Kochia plant response rating,"kochia [5]; Test C, 125 g ai/ha",90
same,"Oat, Wild plant response rating","oat, wild [6]; 500 g ai/ha",90
same,"Oat, Wild plant response rating","oat, wild [6]; Test C, 125 g ai/ha",70
same,"Pigweed, Palmer plant response rating","pigweed, palmer [7]; 500 g ai/ha",100
same,"Pigweed, Palmer plant response rating","pigweed, palmer [7]; Test C, 125 g ai/ha",100
same,Ragweed plant response rating,ragweed [8]; 500 g ai/ha,70
same,Ragweed plant response rating,"ragweed [8]; Test C, 125 g ai/ha",60
same,"Ryegrass, Italian plant response rating","ryegrass, Italian [9]; 500 g ai/ha",100
same,"Ryegrass, Italian plant response rating","ryegrass, Italian [9]; Test C, 125 g ai/ha",90
same,Soybean plant response rating,soybean [10]; 500 g ai/ha,80
same,Soybean plant response rating,"soybean [10]; Test C, 125 g ai/ha",90
same,Wheat plant response rating,wheat [11]; 500 g ai/ha,50
same,Wheat plant response rating,"wheat [11]; Test C, 125 g ai/ha",30
same,"Plant response rating, Barnyardgrass",barnyardgrass [12]; [25],50
same,"Plant response rating, Barnyardgrass",barnyardgrass [12]; [28],90
same,"Plant response rating, Blackgrass",blackgrass [13]; [25],10
same,"Plant response rating, Blackgrass",blackgrass [13]; [28],90
same,"Plant response rating, Corn",corn [14]; [25],30
same,"Plant response rating, Corn",corn [14]; [28],30
same,"Plant response rating, Foxtail, Green",green foxtail [15]; [25],80
same,"Plant response rating, Foxtail, Green",green foxtail [15]; [28],90
same,"Plant response rating, Kochia",kochia [16]; [27],80
same,"Plant response rating, Kochia",kochia [16]; [29],90
same,"Plant response rating, Oat, Wild","oat, wild [17]; [27]",10
same,"Plant response rating, Oat, Wild","oat, wild [17]; [29]",90
same,"Plant response rating, Pigweed, Palmer","pigweed, palmer [18]; [27]",100
same,"Plant response rating, Pigweed, Palmer","pigweed, palmer [18]; [29]",100
same,"Plant response rating, Ragweed",ragweed [19]; [27],70
same,"Plant response rating, Ragweed",ragweed [19]; [29],80
same,"Plant response rating, Ryegrass, Italian","ryegrass, Italian [20]; [27]",50
same,"Plant response rating, Ryegrass, Italian","ryegrass, Italian [20]; [29]",90
same,"Plant response rating, Soybean",soybean [21]; [27],100
same,"Plant response rating, Soybean",soybean [21]; [29],100
same,"Plant response rating, Wheat",wheat [22]; [27],30
same,"Plant response rating, Wheat",wheat [22]; [29],60
same,"Plant response rating, Galium",galium; [25],100
same,"Plant response rating, Galium",galium; [28],100
same,"Plant response rating, Horseweed",horseweed; [25],40
same,"Plant response rating, Horseweed",horseweed; [28],40
same,"Plant response rating, Barnyardgrass (Flood)",barnyardgrass [23],10
same,"Plant response rating, Ducksalad (Flood)",ducksalad,50
same,"Plant response rating, Rice (Flood)",rice,10
same,"Plant response rating, Sedge, Umbrella (Flood)","sedge, umbrella",85
